Reference: ChEMBL document CHEMBL3988442, “University of Dundee, Small-Polar-MMV Screening Library” (2021)

target: Lysine--tRNA ligase (Plasmodium falciparum (isolate 3D7), UniProt Q8IDJ8); assay: Pf-KRS-1 (Lysyl-RNA Synthetase-1, KRS-1, cytosolic KRS) from Plasmodium falciparum. Inhibitor assay, 384 well plate, luminescence read.; assay type: functional
Sequence (Q8IDJ8 whole entry): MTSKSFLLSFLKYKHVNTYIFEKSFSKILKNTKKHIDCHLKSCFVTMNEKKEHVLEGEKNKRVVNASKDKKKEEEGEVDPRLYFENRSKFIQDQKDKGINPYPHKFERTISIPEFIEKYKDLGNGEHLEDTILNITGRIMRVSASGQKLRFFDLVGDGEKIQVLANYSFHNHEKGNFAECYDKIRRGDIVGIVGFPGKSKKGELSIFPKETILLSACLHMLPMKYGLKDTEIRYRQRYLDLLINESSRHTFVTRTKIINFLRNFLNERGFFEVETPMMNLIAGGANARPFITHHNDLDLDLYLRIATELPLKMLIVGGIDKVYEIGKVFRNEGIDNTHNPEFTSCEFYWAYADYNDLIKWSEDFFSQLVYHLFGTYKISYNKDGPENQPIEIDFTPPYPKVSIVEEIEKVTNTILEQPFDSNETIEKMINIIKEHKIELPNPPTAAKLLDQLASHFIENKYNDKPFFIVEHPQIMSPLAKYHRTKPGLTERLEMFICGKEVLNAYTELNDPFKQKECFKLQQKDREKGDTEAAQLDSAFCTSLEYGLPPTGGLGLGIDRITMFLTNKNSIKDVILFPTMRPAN

Point of comparison: `Cc1ncc2c(n1)CN(CC1CCCCO1)CC2` (centres undefined), IC50 35.9 µM. Against it:
- COc1ccc(C(=O)N2CCO[C@H]3[C@@H](OCC4CC4)CC[C@@H]32)cc1F — higher, > 50.1 µM
- Cc1nc(CN2CCCC(CCc3ccccc3C(F)(F)F)C2)co1 (centres undefined) — higher, > 50.1 µM
- Cc1ccc(C(=O)NCc2cc(F)ccc2N2CCCN(C)CC2)o1 — higher, > 50.1 µM
- Cc1cnn(CCNCC(O)COc2ccc(Cl)cc2)c1 (centres undefined) — higher, > 50.1 µM
- CCN1CC(C(=O)N2CCN(CCn3cccc3)CC2)CC1=O (centres undefined) — higher, > 50.1 µM
- CS(=O)(=O)N1C[C@H](C(=O)Nc2cnccn2)C[C@H]2OCC[C@H]21 — higher, > 50.1 µM
- CCOc1cccc2c1OCC(C(=O)NS(=O)(=O)Cc1ccccc1)=C2 — higher, > 50.1 µM
- O=C(c1nc(=O)[nH][nH]1)N1CCC2(CCCCC2)C1 — higher, > 50.1 µM
- CCc1nnsc1C(=O)N1CCCN(Cc2ccccc2)CC1 — higher, > 50.1 µM
- Cc1cc2ccccc2n1CCC(=O)N1CCCCC1CCO (centres undefined) — higher, > 50.1 µM
- O=C(CCNC(=O)c1ccoc1)Nc1cc(F)ccc1F — higher, > 50.1 µM
- Cc1cnn(CC2CCCN2C(=O)c2cccc3c2OCO3)c1 (centres undefined) — higher, > 50.1 µM
- CN(C)CCO[C@H]1C[C@@H](O)C12CCN(c1nccc3ccccc13)CC2 — higher, > 50.1 µM
- Cc1ccc(C2CCCN2Cc2nc3c(cnn3C)c(=O)[nH]2)cc1C (centres undefined) — higher, > 50.1 µM
- COCCN1CCOCC12CCN(c1ccc(C#N)cc1)CC2 — higher, > 50.1 µM
- CN(C)C(=O)N1C[C@@H]2CC[C@H](C1)N(C/C=C/c1ccc(F)cc1)C2 — higher, > 50.1 µM
- Cc1cc(NC(=O)CCCn2ccnc2C)nc(C(C)C)n1 — higher, > 50.1 µM
- Cc1nc(N(C)C)ncc1C(=O)NCCc1csc(-c2cnccn2)n1 — higher, > 50.1 µM
- CNc1ncc2c(n1)CN(C1CCCC1)C2=O — higher, > 50.1 µM
- O=c1c(CN2CCOCC2)coc2ccc(Cl)cc12 — higher, > 50.1 µM
- CCCn1ccnc1CN1CCC(Oc2ccc(Cl)cc2)(C(=O)O)CC1 — higher, > 50.1 µM
- COc1cccc(-n2c(C)cc(C(=O)NS(C)(=O)=O)c2C)c1 — higher, > 50.1 µM
- Cc1cc(C(N)=O)ccc1NC(=O)c1nc(N2CCCC2)ncc1Cl — higher, > 50.1 µM
- CCn1cc2c(n1)C(COCC1CC1)CN(C(=O)c1cc(C)on1)C2 (centres undefined) — higher, > 50.1 µM
- Cc1nc(NC(=O)CN2CCOC(Cn3cccn3)C2)sc1C (centres undefined) — higher, > 50.1 µM
- COc1cccc(COCC(=O)N2CCCC(n3cccn3)C2)c1 (centres undefined) — higher, > 50.1 µM
- CCN(Cc1ccc2c(c1)OCO2)C(=O)NCc1nc(C)cs1 — higher, > 50.1 µM
- Cc1ccc(CN2CCCN(Cc3cscn3)CC2)cc1 — higher, > 50.1 µM
- Cn1c(=O)c2c(n3ncnc13)NC(=O)CC2c1ccc(F)cc1 (centres undefined) — higher, > 50.1 µM
- Cc1ccnc(NCCNC(=O)C2CC3(CCNCC3)CN2C)c1 (centres undefined) — higher, > 50.1 µM
- O=C1COc2ccccc2N1CCCn1cnnn1 — higher, > 50.1 µM
- O=C([C@@H]1C[C@H]2[C@H](CCN2Cc2nccs2)O1)N1CCOCC1 — higher, > 50.1 µM
- O=C(c1ccc2c(c1)CCCC2)N1CCCC(n2cncn2)C1 (centres undefined) — higher, > 50.1 µM
- CC(C)SCCn1ccc2[nH]c(=O)c(C#N)cc2c1=O — higher, > 50.1 µM
- O=C(NCc1csc(Br)c1)c1ccncc1 — higher, > 50.1 µM
- Cc1nc(NC(C)C)nc2c1CN(Cc1nccn1C)CC2 — higher, > 50.1 µM
- Cc1nc(N(C)CCCc2nccn2C)c2c(C)nn(C)c2n1 — higher, > 50.1 µM
- Cc1nc(N(C)C)ncc1C(=O)NCCc1csc(-c2ccncc2)n1 — higher, > 50.1 µM
- COc1ccc(OC)c(C(=O)N(C)Cc2ncc(C)c(OC)c2C)c1 — higher, > 50.1 µM
- FC(F)(F)CCc1ccnc(NC2CCOC2)n1 (centres undefined) — higher, > 50.1 µM
- Cc1noc(C2CCCN(C(=O)c3cc(Cl)ccc3F)C2)n1 (centres undefined) — higher, > 50.1 µM
- CCCC(=O)N1CCCCC1C(=O)Nc1ccc(-c2nnc[nH]2)cc1 (centres undefined) — higher, > 50.1 µM
- Cc1ncc(CN2CCOC(CN(C)c3cccnn3)C2)s1 (centres undefined) — higher, > 50.1 µM
- O=C(c1cnc(-c2cccs2)s1)N1CCCC(n2cccn2)C1 (centres undefined) — higher, > 50.1 µM
- Cc1cc(C(=O)N2CCCC3(COCCN(CCN(C)C)C3)C2)no1 (centres undefined) — higher, > 50.1 µM
- O=C1CC(c2ccc(O)cc2)c2c(c(C(=O)O)cn2-c2ccccc2)N1 (centres undefined) — higher, > 50.1 µM
- Cc1ccc(CN2CCN(Cc3ccncc3)[C@@H]3CS(=O)(=O)C[C@@H]32)cc1 — higher, > 50.1 µM
- CN1C(=O)CC2(CCN(S(=O)(=O)C3CC3)CC2)c2ccccc21 — higher, > 50.1 µM
